According to US11524968B2, “Heterocyclic compound as a protein kinase inhibitor” (HK inno.N Corporation, priority 2017, dated 2022):

molecular target: JAK1 (Homo sapiens (Human), UniProt P23458); experiment: Analysis of JAK1 activity inhibition ability (ADP-Glo Kinase Assay); assay type: biochemical; conditions: JAK1 enzyme, ADP-Glo luminescence, ATP 250 uM, IRS-itide substrate, 30° C. 40 minutes; read-out: IC50
How it was run: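 ADP-Glo luminescence read-out of ADP production, with IC50 taken as the concentration halving JAK1 activity relative to control. Enzyme was incubated 40 min at 30 °C with compound, IRS-itide (40 ng/mL) and ATP (250 uM), concentrations as prepared in pH 7.5 Tris-HCl/MgCl2/BSA/DTT buffer.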

Chain of JAK1 (P23458 whole entry): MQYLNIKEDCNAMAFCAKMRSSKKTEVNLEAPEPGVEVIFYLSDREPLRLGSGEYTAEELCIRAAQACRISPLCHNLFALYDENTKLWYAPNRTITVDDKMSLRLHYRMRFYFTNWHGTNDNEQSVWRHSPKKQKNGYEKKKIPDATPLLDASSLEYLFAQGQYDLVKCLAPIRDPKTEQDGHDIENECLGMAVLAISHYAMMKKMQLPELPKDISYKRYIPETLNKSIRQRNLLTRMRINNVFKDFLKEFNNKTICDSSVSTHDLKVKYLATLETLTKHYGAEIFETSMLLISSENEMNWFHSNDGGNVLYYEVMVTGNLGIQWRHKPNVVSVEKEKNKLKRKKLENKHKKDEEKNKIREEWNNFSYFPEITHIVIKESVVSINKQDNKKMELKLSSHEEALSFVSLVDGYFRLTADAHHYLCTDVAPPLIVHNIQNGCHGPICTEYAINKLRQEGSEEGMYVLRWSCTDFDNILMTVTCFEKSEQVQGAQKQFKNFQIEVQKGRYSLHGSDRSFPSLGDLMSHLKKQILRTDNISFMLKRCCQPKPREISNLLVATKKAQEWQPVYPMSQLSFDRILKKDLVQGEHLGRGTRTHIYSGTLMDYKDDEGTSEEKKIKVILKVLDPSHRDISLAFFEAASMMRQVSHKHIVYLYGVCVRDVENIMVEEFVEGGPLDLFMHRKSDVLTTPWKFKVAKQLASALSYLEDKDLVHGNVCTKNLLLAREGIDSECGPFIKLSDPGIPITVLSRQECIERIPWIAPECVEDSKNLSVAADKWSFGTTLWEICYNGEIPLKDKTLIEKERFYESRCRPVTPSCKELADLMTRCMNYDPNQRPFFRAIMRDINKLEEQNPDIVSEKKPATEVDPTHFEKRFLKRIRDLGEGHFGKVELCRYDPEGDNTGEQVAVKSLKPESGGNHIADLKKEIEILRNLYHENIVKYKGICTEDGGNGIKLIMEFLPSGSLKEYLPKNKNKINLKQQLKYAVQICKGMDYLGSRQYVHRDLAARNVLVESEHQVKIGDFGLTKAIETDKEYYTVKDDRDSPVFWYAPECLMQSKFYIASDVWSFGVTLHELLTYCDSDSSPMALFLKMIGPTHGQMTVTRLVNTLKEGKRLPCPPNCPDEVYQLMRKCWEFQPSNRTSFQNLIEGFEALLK

| SMILES | IC50 [nM] |
| --- | --- |
| CCS(=O)(=O)N1C2C=C(c3cc(NC(=O)C4CC4)nc4[nH]ccc34)CC1CC2 (stereo not shown) [Example 174, N-(4-(8-(ethylsulfonyl)-8-azabicyclo[3.2.1]oct-2-en-3-yl)-1H-pyrrolo[2,3-b]pyridin-6-yl)cyclopropanecarboxamide] | 20 to 200 |
| O=C(Nc1cc(C2=CC3CCCC(C2)N3C(=O)c2ccnc(F)c2)c2cc[nH]c2n1)C1CC1 (stereo not shown) [Example 366, N-(4-(9-(2-fluoroisonicotinoyl)-9-azabicyclo[3.3.1]non-2-en-3-yl)-1H-pyrrolo[2,3-b]pyridin-6-yl)cyclopropanecarboxamide] | < 20 |
| CC1CN(C(=O)c2ccncc2O)CC=C1c1cc(NC(=O)C2CC2)nc2[nH]ccc12 (stereo not shown) [Example 377, N-(4-(1-(3-hydroxyisonicotinoyl)-3-methyl-1,2,3,6-tetrahydropyridin-4-yl)-1H-pyrrolo[2,3-b]pyridin-6-yl)cyclopropanecarboxamide] | > 200 |
| Cc1c(NS(=O)(=O)C2CC2)ccc(-c2cc(NC(=O)C3CC3)nc3[nH]ccc23)c1C [Example 133, N-(4-(4-(cyclopropanesulfonamido)-2,3-dimethylphenyl)-1H-pyrrolo[2,3-b]pyridin-6-yl)cyclopropanecarboxamide] | < 20 |
| CC1CC(c2cc(NC(=O)C3CC3)nc3[nH]ccc23)=CCN1C(=O)CC#N (stereo not shown) [Example 363, N-(4-(1-(2-cyanoacetyl)-2-methyl-1,2,3,6-tetrahydropyridin-4-yl)-1H-pyrrolo[2,3-b]pyridin-6-yl)cyclopropanecarboxamide] | < 20 |
| CC1CN(C(=O)C(C#N)Cc2ccccc2)CC=C1c1cc(NC(=O)C2CC2)nc2[nH]ccc12 (stereo not shown) [Example 360, N-(4-(1-(2-cyano-3-phenylpropanoyl)-3-methyl-1,2,3,6-tetrahydropyridin-4-yl)-1H-pyrrolo[2,3-b]pyridin-6-yl)cyclopropanecarboxamide] | 20 to 200 |
| O=C(Nc1cc(-c2ccc(CC(=O)N3CCCCC3)cc2)c2cc[nH]c2n1)C1CC1 [Example 557, N-(4-(4-(2-oxo-2-(piperidin-1-yl)ethyl)phenyl)-1H-pyrrolo[2,3-b]pyridin-6-yl)cyclopropanecarboxamide] | 20 to 200 |
| O=C(Nc1cc(C2=CCN(CC(=O)N3CCS(=O)(=O)CC3)CC2)c2cc[nH]c2n1)C1CC1 [Example 578, N-(4-(1-(2-(1,1-dioxidothiomorpholino)-2-oxoethyl)-1,2,3,6-tetrahydropyridin-4-yl)-1H-pyrrolo[2,3-b]pyridin-6-yl)cyclopropanecarboxamide] | 20 to 200 |
| N#Cc1cccc(C(=O)N2C3CCC2CN(c2cc(NC(=O)C4CC4)nc4[nH]ccc24)C3)c1 [Example 686, N-(4-(8-(3-cyanobenzoyl)-3,8-diazabicyclo[3.2.1]octan-3-yl)-1H-pyrrolo[2,3-b]pyridin-6-yl)cyclopropanecarboxamide] | < 20 |

Continued, values first:

| IC50 [nM] | SMILES |
| --- | --- |
| > 200 | CCCS(=O)(=O)Nc1ccc(-c2cc(NC(=O)C3CC3)nc3[nH]ccc23)c(C(=O)OC)c1 [Example 141, methyl 2-(6-(cyclopropanecarboxamido)-1H-pyrrolo[2,3-b]pyridin-4-yl)-5-(propylsulfonamido)benzoate] |
| 20 to 200 | COCCN(C)S(=O)(=O)Nc1ccc(-c2cc(NC(=O)C3CC3)nc3[nH]ccc23)cc1 [Example 223, N-(4-(4-((N-(2-methoxyethyl)-N-methylsulfamoyl)amino)phenyl)-1H-pyrrolo[2,3-b]pyridin-6-yl)cyclopropanecarboxamide] |
| < 20 | O=C(Nc1cc(-c2ccc(NS(=O)(=O)CC3CCOCC3)cc2)c2cc[nH]c2n1)C1CC1 [Example 55, N-(4-(4-(((tetrahydro-2H-pyran-4-yl)methyl)sulfonamido)phenyl)-1H-pyrrolo[2,3-b]pyridin-6-yl)cyclopropanecarboxamide] |
| 20 to 200 | O=C(Nc1cc(-c2ccc(NS(=O)(=O)CC(F)F)cc2)c2cc[nH]c2n1)C1CC1 [Example 51, N-(4-(4-((2,2-difluoroethyl)sulfonamido)phenyl)-1H-pyrrolo[2,3-b]pyridin-6-yl)cyclopropanecarboxamide] |
